Experimental data from US20180221296A1, “INTRASITE ADMINISTRATION AND DOSING METHODS AND PHARMACEUTICALS FOR USE THEREIN” (HKL Medical, LLC, priority 2017, published 2018).
Where two headings read alike, the source gives them in different places.

Assays:
[1] = in vivo; cited from earlier work
[2] = cited from earlier work
[3] = Intrasite vancomycin pharmacodynamics trial: adverse reactions; assay type: in vivo, human; settings: IS dose 2 mg/cm^2, spinal surgery patients
From the text: (§1) Intrasite Vancomycin Pharmacodynamics Trial.
Adverse Reactions to IS Vancomycin. […] There was one example of a post-operative gram-negative bacterial surgical site infection which could not have been prevented by vancomycin because its spectrum of antimicrobial effects dies not cover this organism.

[4] = tested on: Vancomycin-Resistant Staphylococcus aureus (VRSA); settings: certain strains of VRSA; cited from earlier work
[5] = Intrasite vancomycin pharmacodynamics trial: wound seroma vancomycin levels via wound drain
Procedure: Intrasite Vancomycin Pharmacodynamics Trial. A single dose cohort pharmacodynamics trial was performed under FDA IND# 117494, the first FDA IND awarded for intrasite vancomycin. This dose cohort involved administration of a low dose of intrasite lyophilized vancomycin into complex instrumented spinal surgery wounds in adult patients. At multiple specific time points after surgery measurements were taken of vancomycin and […] levels in the blood stream and from the wound seroma fluid (via the wound drain). Measurements of endotoxin levels within the blood stream and seroma fluid were also taken at the same time points following surgery. All personnel present during administration of IS vancomycin were required to wear a certified fit N-90 mask to prevent inhalation of aerosolized vancomycin powder, which is a known safety risk for pulmonary fibrosis.
Intrasite Dosing of Vancomycin. Intrasite dosing was based on the surface area of the wound (tissues within the spinal wound lying deep to the skin). Wound surface area was estimated by a wound Length×Depth×2 calculation where length and mean depth were measured directed by the surgeon after surgical opening of the wound was completed. To assure safety, the maximum IS dose of vancomycin given to patients in this cohort was limited to well below the normal maximum safe IV dose of 2.5 g. Given that maximum wound surface areas created in spinal deformity patients are on the order of 1000 cm^2, a surface area dose of 2 mg/cm^2 provides for a maximum single dose of ˜2 g IS vancomycin, considered safe even if the entire dose absorbed into the circulation. To improve the homogeneity of IS dose application one third of the total calculated dose was delivered to the subepidermal tissues of the wound, superficial to the perimuscular fascia, one third of the total dose was applied to the subfascial muscle, bone, and other tissues, and one third of the total dose was milled with the bone graft before implantation.
Wound Vancomycin Levels Following a Single Intrasite Dose. Wound seroma vancomycin levels were measured via the wound drain at multiple time points for 4 days after a single intrasite dose given at the conclusion of surgery. […] However, vancomycin is a time-dependent killer of microbes and levels must exceed kill concentrations for up to 48 hrs to be completely effective.

[6] = Intrasite vancomycin pharmacodynamics trial: systemic circulation serum vancomycin concentration; assay type: in vivo, human; settings: all measured time-points, single IS dose (2 mg/cm^2; moderate doses); detectability limit printed >1.7 μg/ml
Procedure: as §1
Intrasite Dosing of Vancomycin.
Systemic Circulation Serum Vancomycin Concentrations after IS Dose. In all of the 10 patients of the 2 mg/cm^2 dose cohort serum vancomycin levels remained undetectable at all measured time-points after a single IS dose. Detectability limit in these experiments was >1.7 μg/ml. This is interpreted as a strong indicator of safety with regard to systemic side effects and toxicities as well as evidence of a very wide therapeutic index when vancomycin is administered IS. This strongly contrasts to the higher probability of systemic toxicity and narrow therapeutic index when vancomycin is administered IV.

[7] = measured at 2 hrs after single IS dose 2 mg/cm^2, 10 patients
[8] = single IS dose 2 mg/cm^2, 10 patients
[9] = within the first 48 hrs after single IS dose 2 mg/cm^2, 10 patients

Compound: NC[C@H]1CC[C@H](C(=O)O)CC1 [TXA, trans-4-[aminomethyl]cyclohexanecarboxylic acid]
- half-life in the blood stream [1]: approximately 2 hrs
- oral bioavailability ([2]; oral): 34%

Compound: CO[C@H]1/C=C/O[C@@]2(C)Oc3c(C)c(O)c4c(O)c(c5c(nc6cc(C)ccn65)c4c3C2=O)NC(=O)/C(C)=C\C=C\[C@H](C)[C@H](O)[C@@H](C)[C@@H](O)[C@@H](C)[C@H](OC(C)=O)[C@@H]1C [Rifaximin]
- oral bioavailability ([2]; in vivo, po): < 0.4%

Compound: CN[C@H](CC(C)C)C(=O)N[C@H]1C(=O)N[C@@H](CC(N)=O)C(=O)N[C@H]2C(=O)N[C@H]3C(=O)N[C@H](C(=O)N[C@H](C(=O)O)c4cc(O)cc(O)c4-c4cc3ccc4O)[C@H](O)c3ccc(c(Cl)c3)Oc3cc2cc(c3O[C@@H]2O[C@H](CO)[C@@H](O)[C@H](O)[C@H]2O[C@H]2C[C@](C)(N)[C@H](O)[C@H](C)O2)Oc2ccc(cc2Cl)[C@H]1O [vancomycin]
- adverse reactions related to IS vancomycin [3]: no patient- or practitioner-identified adverse reactions
- minimum 90% bactericidal concentration (MBC^90) [4]: 64 µg/mL
- highest vancomycin concentration, subfascial wound compartment [5, 7]: 952 µg/mL
- highest vancomycin concentration, suprafascial wound compartment [5, 7]: 6110 µg/mL
- time vancomycin remains in high enough wound concentration for efficient suppression of gram-positive microorganisms ([5]; moderate IS doses, also with seroma fluid removed via drains, preliminary evidence): at least 4 days
- time mean subfascial vancomycin concentration exceeds threshold to kill VRSA (128 μg/ml) [5, 8]: less than 24 hrs
- time mean suprafascial vancomycin concentration exceeds threshold to kill VRSA (128 μg/ml) [5, 8]: more than 48 hrs
- lowest vancomycin concentration, subfascial wound compartment [5, 9]: 4.1 µg/mL
- lowest vancomycin concentration, suprafascial wound compartment [5, 9]: 16.2 µg/mL
- serum vancomycin level after IS dose [6]: undetectable
